Assay results reported in paper PMC4635503, “High-affinity nitrate/nitrite transporters NrtA and NrtB of Aspergillus nidulans exhibit high specificity and different inhibitor sensitivity” (Microbiology, 2015).
≈ marks a conversion by molar mass, not a printed value. Where “and” joins values, the source holds several entries; their conditions need not be identical. Identical values can stand only once. Like-named read-outs stand apart in the source and are kept apart here.

How the values were obtained:
NrtB [1] = format: cell-based, Aspergillus nidulans; conditions: for Nitrate uptake ± SE: nrtA747 (NrtB); for nature of inhibition of nitrate transport (Lineweaver–Burk): NrtB (expressed in nrtA1); for Ki: inhibitor concentration reducing net nitrate uptake rate by 50 % of control
Procedure: (§1) These were performed on cultures grown in liquid AMM with 5 mM urea as nitrogen source for a total of 6.5 h at 37 °C ([Brownlee & Arst, 1983]). Urea was used as it (i) is a neutral nitrogen source, neither inducing nor repressing nitrate transport, (ii) has been used routinely in the past and (iii) permitted direct comparison with previously published results. […] Transporter activity was induced by the addition of 10 mM sodium nitrate 100 min prior to assay as described previously ([Brownlee & Arst, 1983]). Assays were carried out in triplicate, generally at pH 6.5, on three independently grown cultures for each strain and expressed as nmol nitrate removed from the medium min^ − 1 (mg dried mycelium)^ − 1, as discussed before ([Brownlee & Arst, 1983]; [Kinghorn et al., 2005]; [Unkles et al., 2012]). Both carbonic acid and bicarbonate chemical species can occur at pH 6.5. Thus potential inhibition of nitrate transport by carbonic acid/bicarbonate was tested at pH 6.5 and bicarbonate at pH 8.3.
(§2) To effectively assess net uptake, it is necessary that any export, i.e. simultaneous transport in the reverse direction, is minimal.
(§3) Values of K m and V max were calculated by linear regression of Lineweaver–Burk analyses (1/v against 1/s, where v is net uptake and s is substrate concentration). The kinetic values of nitrate transport by the WT and mutants were compared with those from a previous report ([Unkles et al., 2001]). […] Therefore the kinetic values in the absence of inhibitors from the present study were used as control values. Each K i value was determined by regression of the rates of net nitrate uptake transport versus the range of concentrations of a particular inhibitor: linear or nonlinear regression was used, depending on which type provided the highest r ^2 value. Calculated from each regression was the concentration of the inhibitor that reduced net nitrate uptake rate by 50 % of the control (without inhibitor) rate, which was assessed as the K i value. Lineweaver–Burk analyses were carried out to determine the nature of the inhibition of nitrate transport for each inhibitor.

NrtA [2] = biological target: T1, NrtA (Emericella nidulans, UniProt P22152); assay: cell-based; parameters: mutant nrtB110 (expressing a functional NrtA); endogenous in cells; host or cells: Aspergillus nidulans mycelium, knockout strain nrtB110, nitrate-induced; species or system Aspergillus nidulans; conditions: for nature of inhibition of nitrate transport (Lineweaver–Burk): NrtA (expressed in nrtB110)
T1 sequence (P22152 whole entry): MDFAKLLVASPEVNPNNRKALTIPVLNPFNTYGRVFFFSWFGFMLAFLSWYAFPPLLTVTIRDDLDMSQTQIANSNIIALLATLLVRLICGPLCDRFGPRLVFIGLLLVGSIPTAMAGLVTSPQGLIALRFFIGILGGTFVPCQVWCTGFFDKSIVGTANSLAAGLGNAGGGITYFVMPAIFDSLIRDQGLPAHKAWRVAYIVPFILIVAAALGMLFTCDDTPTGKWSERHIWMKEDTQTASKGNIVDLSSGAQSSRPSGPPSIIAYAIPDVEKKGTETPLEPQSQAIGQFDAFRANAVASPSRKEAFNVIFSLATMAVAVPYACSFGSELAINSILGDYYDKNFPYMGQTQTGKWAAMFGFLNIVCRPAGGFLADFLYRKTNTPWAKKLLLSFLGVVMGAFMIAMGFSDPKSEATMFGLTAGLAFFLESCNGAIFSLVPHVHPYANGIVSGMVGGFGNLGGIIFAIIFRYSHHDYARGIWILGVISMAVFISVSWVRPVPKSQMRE
Procedure: as §1, §2, §3

[3] = tested on: A. nidulans WT and mutant strains; format: cell-based, Aspergillus nidulans; conditions: for growth stunting on solid AMM: up to 100 mM, 1 mM nitrate (or proline) as sole nitrogen source, data not shown
Procedure: (§4) Fungal growth tests were carried out in standard Petri dishes containing defined Aspergillus minimal medium (AMM) agar ([Cove, 1976]), with sodium nitrate or proline as the sole nitrogen source, at 1 or 10 mM concentration. Strains were tested for inhibition by bicarbonate, formate, oxalate, chlorite, sulphite (all purchased as the sodium salt), chlorate (potassium salt), malonate (acid form) or caesium (chloride salt). Stock aqueous solutions of inhibitors were adjusted to pH 6.5 and prepared immediately before use. It should be noted that at pH 6.5, bicarbonate is in approximately 50 % equilibrium with carbonic acid. […] Cultures were incubated routinely at 37 °C for 48 h, and the growth response was scored.
(§5) Each treatment was carried out in five replicates. […] As caesium was utilized as a chloride salt, a control for potential inhibition by chloride was assessed, by growth on 100 mM sodium chloride (Fig. 4).
Unlike chlorate, commercial chemical supplies of chlorite typically contain a relatively high percentage (20 %) of contaminants. […] The pH of this solution was adjusted to 6.5 and aliquots incorporated into solid AMM (with nitrate or proline as the nitrogen source) at final concentrations equivalent to those that would be present in agar medium containing 10 mM chlorite (i.e. 1.56 mM sodium chloride, 0.28 mM sodium chlorate, 0.68 mM sodium hydroxide and 0.17 mM sodium carbonate).

[4] = tested on: nitrate transport by NrtA and NrtB; assay: Net nitrate transport inhibition assays, strain not specified; format: cell-based, Aspergillus nidulans; conditions: net nitrate transport inhibition assays (Tables 3 and 4)
Procedure: as §1, §2

NrtA [5] = biological target: T1, NrtA; conditions: cited from earlier work
NrtB [6] = conditions: cited from earlier work
[7] = tested on: A. nidulans WT strain (NrtA, NrtB); assay: MIC growth test on solid AMM, WT strain; format: cell-based, Aspergillus nidulans
Procedure: as §4, §5

NrtA, NrtB (WT strain) = assay: Net nitrate uptake assay and kinetics, WT strain; format: cell-based, Aspergillus nidulans; conditions: mean ± SE; for Ki: WT (NrtA, NrtB), inhibitor concentration reducing net nitrate uptake rate by 50 % of control
Procedure: as §1, §2, §3

[8] = tested on: A. nidulans mutant nrtB110 (functional NrtA); assay: microbe, parasite or virus in culture; format: cell-based, Aspergillus nidulans
Procedure: as §4, §5

[9] = tested on: A. nidulans mutant nrtA1 (functional NrtB); assay: microbe, parasite or virus in culture; format: cell-based, Aspergillus nidulans
Procedure: as §4, §5

[10] = tested on: A. nidulans double mutant tbl110 (nrtA747 nrtB110, neither transporter); assay: microbe, parasite or virus in culture; format: cell-based, Aspergillus nidulans; conditions: T110 (neither transporter)
Procedure: as §4, §5

A. nidulans WT strain = conditions: ref Wang et al., 2007; cited from earlier work
[11] = pH 6.5, in presence of the anion, control without anion 2.9 ± 0.1
[12] = nrtB110 (NrtA), pH 6.5, in presence of the anion, control without anion 10.6 ± 1.4
[13] = Aspergillus nidulans, 1 mM proline as sole nitrogen source
[14] = Aspergillus nidulans, 10 mM nitrate as sole nitrogen source
[15] = Aspergillus nidulans, 10 mM proline as sole nitrogen source
[16] = nrtB110 (NrtA), 1 mM nitrate as sole nitrogen source
[17] = nrtB110 (NrtA), 1 mM proline as sole nitrogen source
[18] = nrtB110 (NrtA), 10 mM nitrate as sole nitrogen source
[19] = nrtB110 (NrtA), 10 mM proline as sole nitrogen source
[20] = 1 mM proline as sole nitrogen source
[21] = 10 mM nitrate as sole nitrogen source
[22] = 10 mM proline as sole nitrogen source
[23] = nitrate transport, nrtA1 (NrtB), no inhibitor, mean ± SE
[24] = nitrate transport, nrtB110 (NrtA), no inhibitor, mean ± SE
[25] = nitrate transport, WT, no inhibitor

Compound: Carbonic acid/bicarbonate
- Nitrate uptake ± SE (NrtB [1]; [11]): 2.7 ± 0.1 nmol NO3 min^− 1 mg^− 1
- Nitrate uptake ± SE (NrtA [2]; [12]): 11.1 ± 0.4 nmol NO3 min^− 1 mg^− 1
- growth stunting on solid AMM [3]: no convincing phenotypic evidence of growth stunting

Compound: O=C(O)O [Bicarbonate, bicarbonate]
- Nitrate uptake ± SE (NrtB [1]; pH 8.3, in presence of the anion, control without anion 1.9 ± 0.7): 1.9 ± 0.3 nmol NO3 min^− 1 mg^− 1
- inhibition of nitrate transport / uptake [4]: did not inhibit growth or nitrate uptake
- Nitrate uptake ± SE (NrtA [2]; nrtB110 (NrtA), pH 8.3, in presence of the anion, control without anion 0.7 ± 0.4): 0.5 ± 0.7 nmol NO3 min^− 1 mg^− 1
- growth stunting on solid AMM [3]: no convincing phenotypic evidence of growth stunting

Compound: O=C(O)CC(=O)O [Malonate, malonate]
- Nitrate uptake ± SE (NrtB [1]; [11]): 2.7 ± 0.2 nmol NO3 min^− 1 mg^− 1
- inhibition of nitrate transport / uptake [4]: did not inhibit growth or nitrate uptake
- growth stunting on solid AMM [3]: no convincing phenotypic evidence of growth stunting

Compound: [Cl-].[Na+] [sodium chloride]
- effect on growth ([3]; 100 mM sodium chloride, control for chloride): no effect on growth

Compound: O=CO [Formate]
- Nitrate uptake ± SE (NrtB [1]; [11]): 2.7 ± 0.1 nmol NO3 min^− 1 mg^− 1
- inhibition of nitrate transport / uptake [4]: did not inhibit growth or nitrate uptake
- Nitrate uptake ± SE (NrtA [2]; [12]): 8.1 ± 0.4 nmol NO3 min^− 1 mg^− 1
- growth stunting on solid AMM [3]: no convincing phenotypic evidence of growth stunting

Compound: O=NO [nitrite]
- K m for nitrite (NrtA [5]; ref Wang et al., 2008): 0.016 mM
- K m for nitrite (NrtB [6]; ref Wang et al., 2008): 0.011 mM

Compound: [Cs+] [Caesium, caesium]
- MIC ([7]; Aspergillus nidulans, 1 mM nitrate as sole nitrogen source, solid AMM, 37 °C): 100 mM
- MIC [7, 13]: 80 mM
- MIC [7, 14]: > 100 mM
- MIC [7, 15]: 60 mM
- nature of inhibition of nitrate transport (Lineweaver–Burk) (NrtB [1]): uncompetitive
- nature of inhibition of nitrate transport (Lineweaver–Burk) (NrtB [1]; listed as caesium): uncompetitive inhibition
- Ki (NrtB [1]; nrtA1 (NrtB), mean ± SE): 2.6 ± 0.02 mM
- Ki (NrtB [1]; nrtA1 (NrtB), mean ± SE, listed as caesium): ~3 mM
- Ki (NrtA [2]; K i, nrtB110 (NrtA), inhibitor concentration reducing net nitrate uptake rate by 50 % of control, mean ± SE): 55 mM and 54.8 mM
- nature of inhibition of nitrate transport (Lineweaver–Burk) (NrtA [2]): non-competitive inhibitor
- nature of inhibition of nitrate transport (Lineweaver–Burk) (NrtA [2]; listed as caesium): non-competitive inhibition
- Ki (NrtA, NrtB (WT strain)): 45.1 ± 6.1 mM
- Ki (NrtA, NrtB (WT strain); listed as caesium): 45 mM
- MIC ([8]; Aspergillus nidulans): > 100 mM
- MIC [8, 16]: >100 mM
- MIC [8, 17]: >100 mM
- MIC [8, 18]: >100 mM
- MIC [8, 19]: >100 mM
- MIC ([9]; Aspergillus nidulans, 1 mM nitrate as sole nitrogen source): 40 mM
- MIC [9, 13]: 80 mM
- MIC [9, 14]: 30 mM
- MIC [9, 15]: 60 mM
- MIC [10, 13]: 100 mM
- MIC [10, 15]: > 100 mM

Compound: O=C(O)C(=O)O [Oxalate]
- Nitrate uptake ± SE (NrtB [1]; [11]): 2.4 ± 0.1 nmol NO3 min^− 1 mg^− 1
- inhibition of nitrate transport / uptake [4]: did not inhibit growth or nitrate uptake
- Nitrate uptake ± SE (NrtA [2]; [12]): 9.7 ± 0.4 nmol NO3 min^− 1 mg^− 1
- growth stunting on solid AMM [3]: no convincing phenotypic evidence of growth stunting

Compound: O=S(O)O [Sulphite, sulphite]
- MIC ([7]; 1 mM nitrate as sole nitrogen source, solid AMM, 37 °C): 15 mM (≈ 1230 µg/mL)
- MIC [7, 20]: 15 mM (≈ 1230 µg/mL)
- MIC [7, 21]: 15 mM (≈ 1230 µg/mL)
- MIC [7, 22]: >25 mM
- concentration at which growth ceased ([3]; media with 10 mM nitrate): 15 mM
- concentration at which growth ceased ([3]; media with 10 mM proline): > 25 mM
- concentration at which growth ceased ([3]; media with either 1 mM nitrate or proline): 15 mM
- MIC [8, 16]: 15 mM (≈ 1230 µg/mL)
- MIC [8, 17]: 15 mM (≈ 1230 µg/mL)
- MIC [8, 18]: 15 mM (≈ 1230 µg/mL)
- MIC [8, 19]: >25 mM
- MIC ([9]; 1 mM nitrate as sole nitrogen source): 15 mM (≈ 1230 µg/mL)
- MIC [9, 20]: 15 mM (≈ 1230 µg/mL)
- MIC [9, 21]: 15 mM (≈ 1230 µg/mL)
- MIC [9, 22]: >25 mM
- MIC [10, 20]: 15 mM (≈ 1230 µg/mL)
- MIC [10, 22]: >25 mM

Compound: O=[N+]([O-])O [nitrate]
- K m for nitrate (NrtA [5]; ref Unkles et al., 2001): 0.096 mM
- K m (NrtB [1]; [23]): 0.0114 ± 0.0024 mM
- V max (NrtB [1]; [23]): 3.6 ± 0.2
- rate of nitrate efflux as % of influx (A. nidulans WT strain): 8%
- K m (NrtA [2]; [24]): 0.041 ± 0.0048 mM
- V max (NrtA [2]; [24]): 9.1 ± 0.8
- K m (NrtA, NrtB (WT strain); [25]): 0.0571 ± 0.0026 mM
- V max (NrtA, NrtB (WT strain); [25]): 14.2 ± 0.8
- K m for nitrate (NrtB [6]; ref Unkles et al., 2001): 0.011 mM
